Columns and labels:
[1] = Drug level in brain of Sprague-Dawley rat at 10 mg/kg, po administered as single dose via gavage measured at 12 hrs by LC-MS/MS analysis; format: ADME, organism-based; details: read-out: Drug uptake
[2] = Drug level in plasma of Sprague-Dawley rat at 10 mg/kg, po administered as single dose via gavage measured at 12 hrs by LC-MS/MS analysis; format: ADME, organism-based
[3] = Drug level in liver of Sprague-Dawley rat at 10 mg/kg, po administered as single dose via gavage measured at 12 hrs by LC-MS/MS analysis; format: ADME, organism-based; details: read-out: Drug uptake
[4] = Selectivity ratio of IC50 for MAGL (unknown origin) to IC50 for human transmembrane domain deficient FFAH expressed in Escherichia coli; format: toxicity
CYP2C19 [5] = assay: Selectivity ratio of IC50 for CYP2C19 in human liver microsomes to IC50 for rat FFAH expressed in Escherichia coli; format: toxicity; details: read-out: Ratio IC50
CYP1A2 [6] = assay: Selectivity ratio of IC50 for CYP1A2 in human liver microsomes to IC50 for rat FFAH expressed in Escherichia coli; format: toxicity; details: read-out: Ratio IC50
Monoglyceride lipase = target: T1, Monoglyceride lipase (Homo sapiens, UniProt Q99685); assay: Inhibition of MAGL (unknown origin) up to 10 uM
T1 sequence (Q99685 whole entry): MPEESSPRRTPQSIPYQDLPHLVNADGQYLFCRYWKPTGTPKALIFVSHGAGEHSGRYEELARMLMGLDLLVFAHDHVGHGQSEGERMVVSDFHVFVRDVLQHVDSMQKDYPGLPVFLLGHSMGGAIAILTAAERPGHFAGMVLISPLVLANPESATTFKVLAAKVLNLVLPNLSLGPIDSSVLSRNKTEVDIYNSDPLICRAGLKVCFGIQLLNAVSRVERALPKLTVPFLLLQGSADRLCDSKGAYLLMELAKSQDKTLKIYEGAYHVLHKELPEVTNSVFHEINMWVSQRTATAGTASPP

CYP2C19 [7] = assay: Selectivity ratio of IC50 for CYP2C19 in human liver microsomes to IC50 for human transmembrane domain deficient FFAH expressed in Escherichia coli; format: toxicity; details: read-out: Ratio IC50
CYP1A2 [8] = assay: Selectivity ratio of IC50 for CYP1A2 in human liver microsomes to IC50 for human transmembrane domain deficient FFAH expressed in Escherichia coli; format: toxicity; details: read-out: Ratio IC50

concentration at 12 h [1] [µM] | concentration at 12 h [2] [µM] | concentration at 12 h [3] [µM] | SMILES | Ratio IC50 [4] | selectivity ratio (CYP2C19 [5]) | selectivity ratio (CYP1A2 [6]) | inhibition (INH) (Monoglyceride lipase) | selectivity ratio (CYP2C19 [7]) | selectivity ratio (CYP1A2 [8])
3.6 | 1.9 | 21 | O=C(N[C@H]1CC/C(=C\c2cccc(Oc3ccc(C(F)(F)F)cn3)c2)CC1)c1cccnc1 (stereo not given) |  |  |  |  |  | 
 |  |  | Nc1ncc(C(=O)N[C@H]2CC/C(=C\c3cccc(Oc4ccc(C(F)(F)F)cn4)c3)CC2)cn1 (stereo not given) | > 10000 | > 5000 | > 5000 | Not Active | > 5000 | > 5000
 |  |  | Cc1cc(C(=O)N[C@H]2CC/C(=C\c3cccc(Oc4ccc(C(F)(F)F)cn4)c3)CC2)cnc1N (stereo not given) | > 10000 | > 5000 | > 5000 | Not Active | > 5000 | > 5000
